Data as given in patent publication US9423396B2, “Bodipy structure fluorescence probes for diverse biological applications” (National University of Singapore, priority 2011, dated 2016).

Experiment: Spectroscopic measurements (absorption, emission, quantum yield, extinction coefficient)
Type: physicochemical
[1] = BDNCA library, difference emission minus absorption
[2] = BDNCA library, extinction coefficient; in M-1 cm-1 (unit assumed)
[3] = BDNCA library, fluorescence emission
[4] = absorption maximum, BDNCA library
[5] = difference of emission and absorption maxima
[6] = extinction coefficient, BDNCA library; in M-1 cm-1 (unit assumed)
[7] = fluorescence emission maximum, BDNCA library

Row | Compound | Qunt. Yield (BDNCA library) | Abs (BDNCA library, absorption) | Flu-Abs [1] | ε [2] | Flu [3] | Abs [4] | Flu-Abs [5] | ε [6] | Flu [7] | Qunt. Yield (quantum yield, BDNCA library)
1 | COc1cc(/C=C/C2=[N+]3C(=C(c4ccc(NC(=O)CCl)cc4)c4cccn4[B-]3(F)F)C(C)=C2)cc(I)c1OC [BDNCA-242] | 0.14 | 561 nm | 25 | 70,847 | 586 | – | – | – | – | –
2 | COc1ccc(/C=C/C2=[N+]3C(=C(c4ccc(NC(=O)CCl)cc4)c4cccn4[B-]3(F)F)C(C)=C2)cc1C [BDNCA-335] | – | – | – | – | – | 569 nm | 33 | 41,739 | 602 | 0.08
3 | CC1=CC(/C=C/c2ccc(N(c3ccccc3)c3ccccc3)cc2)=[N+]2C1=C(c1ccc(NC(=O)CCl)cc1)c1cccn1[B-]2(F)F [BDNCA-14] | – | 599 nm | – | 35,149 | – | – | – | – | – | –
4 | CC1=CC(/C=C/c2ccc(N(C)CCC#N)cc2)=[N+]2C1=C(c1ccc(NC(=O)CCl)cc1)c1cccn1[B-]2(F)F [BDNCA-3] | weak | 605 nm | – | 73,593 | weak | – | – | – | – | –
5 | CC1=CC(/C=C/c2ccc(OCCCN(C)C)cc2)=[N+]2C1=C(c1ccc(NC(=O)CCl)cc1)c1cccn1[B-]2(F)F [BDNCA-163] | 0.04 | 566 nm | 29 | 24,165 | 595 | – | – | – | – | –
6 | COc1ccc(/C=C/C2=[N+]3C(=C(c4ccc(NC(=O)CCl)cc4)c4cccn4[B-]3(F)F)C(C)=C2)cc1OC [BDNCA-62] | 0.08 | 570 nm | 48 | 38,169 | 618 | – | – | – | – | –
7 | COc1cc(/C=C/C2=[N+]3C(=C(c4ccc(NC(=O)CCl)cc4)c4cccn4[B-]3(F)F)C(C)=C2)cc(Br)c1OC [BDNCA-259] | 0.11 | 561 nm | 21 | 49,428 | 582 | – | – | – | – | –
8 | Cc1cc(/C=C/c2ccccc2OCC(=O)O)n2c1C(c1ccc(NC(=O)CCl)cc1)=C1C=CC=[N+]1[B-]2(F)F [BDNCA-128] | 0.02 | 559 nm | 25 | 14,554 | 584 | – | – | – | – | –
9 | COc1ccc(Oc2cccc(/C=C/C3=[N+]4C(=C(c5ccc(NC(=O)CCl)cc5)c5cccn5[B-]4(F)F)C(C)=C3)c2)cc1 [BDNCA-42] | 0.08 | 556 nm | 21 | 54,645 | 577 | – | – | – | – | –
10 | COc1ccc(Oc2ccc(/C=C/c3cc(C)c4n3[B-](F)(F)[N+]3=CC=CC3=C4c3ccc(NC(=O)CCl)cc3)cc2)cc1 [BDNCA-178] | 0.09 | 563 nm | 26 | 61,785 | 589 | – | – | – | – | –
11 | CC1=CC(/C=C/c2ccccc2OC(F)(F)F)=[N+]2C1=C(c1ccc(NC(=O)CCl)cc1)c1cccn1[B-]2(F)F [BDNCA-365] | – | – | – | – | – | 553 nm | 16 | 45,584 | 569 | 0.07
12 | CC1=CC(/C=C/c2ccc(OCc3ccccc3)c(OCc3ccccc3)c2)=[N+]2C1=C(c1ccc(NC(=O)CCl)cc1)c1cccn1[B-]2(F)F [BDNCA-4] | 0.18 | 570 nm | 41 | 79,908 | 611 | – | – | – | – | –
13 | CC1=CC(/C=C/c2ccc(/C=C/c3ccccc3)cc2)=[N+]2C1=C(c1ccc(NC(=O)CCl)cc1)c1cccn1[B-]2(F)F [BDNCA-69] | 0.09 | 577 nm | 33 | 40,641 | 610 | – | – | – | – | –
14 | CC1=CC(/C=C/c2c[nH]c3ccccc23)=[N+]2C1=C(c1ccc(NC(=O)CCl)cc1)c1cccn1[B-]2(F)F [BDNCA-375] | – | – | – | – | – | 591 nm | 63 | 21,968 | 654 | 0.02
15 | COc1cc(F)c(/C=C/c2cc(C)c3n2[B-](F)(F)[N+]2=CC=CC2=C3c2ccc(NC(=O)CCl)cc2)cc1OC [BDNCA-305] | 0.22 | 568 nm | 38 | 153,227 | 606 | – | – | – | – | –
16 | COc1cc(/C=C/C2=[N+]3C(=C(c4ccc(NC(=O)CCl)cc4)c4cccn4[B-]3(F)F)C(C)=C2)ccc1OCCBr [BDNCA-268] | 0.12 | 569 nm | 40 | 54,371 | 609 | – | – | – | – | –
17 | CC1=CC(/C=C/c2cccc(Oc3ccccc3)c2)=[N+]2C1=C(c1ccc(NC(=O)CCl)cc1)c1cccn1[B-]2(F)F [BDNCA-20] | 0.11 | 556 nm | 20 | 51,625 | 576 | – | – | – | – | –
18 | CC1=CC(/C=C/c2ccc(Oc3cccc(Cl)c3)cc2)=[N+]2C1=C(c1ccc(NC(=O)CCl)cc1)c1cccn1[B-]2(F)F [BDNCA-290] | 0.14 | 557 nm | 20 | 65,629 | 577 | – | – | – | – | –
19 | CC1=CC(/C=C/c2ccc(OC(C)(C)C)cc2)=[N+]2C1=C(c1ccc(NC(=O)CCl)cc1)c1cccn1[B-]2(F)F [BDNCA-75] | 0.09 | 562 nm | 38 | 35,973 | 600 | – | – | – | – | –
20 | COc1cc(/C=C/C2=[N+]3C(=C(c4ccc(NC(=O)CCl)cc4)c4cccn4[B-]3(F)F)C(C)=C2)cc(Cl)c1OC [BDNCA-294] | 0.14 | 560 nm | 21 | 63,158 | 581 | – | – | – | – | –
21 | CC(=O)OCCN(CCOC(C)=O)c1ccc(/C=C/C2=[N+]3C(=C(c4ccc(NC(=O)CCl)cc4)c4cccn4[B-]3(F)F)C(C)=C2)cc1 [BDNCA-114] | weak | 608 nm | – | 42,288 | weak | – | – | – | – | –
22 | Cc1cc(/C=C/c2ccc(Br)cc2)n2c1C(c1ccc(NC(=O)CCl)cc1)=C1C=CC=[N+]1[B-]2(F)F [BDNCA-409] | – | – | – | – | – | 557 nm | 20 | 87,597 | 577 | 0.14
23 | CCc1ccccc1/C=C/c1cc(C)c2n1[B-](F)(F)[N+]1=CC=CC1=C2c1ccc(NC(=O)CCl)cc1 [BDNCA-251] | 0.11 | 555 nm | 23 | 54,096 | 578 | – | – | – | – | –
24 | CC1=CC(/C=C/c2cccc(Oc3ccc(Cl)c(Cl)c3)c2)=[N+]2C1=C(c1ccc(NC(=O)CCl)cc1)c1cccn1[B-]2(F)F [BDNCA-299] | 0.09 | 556 nm | 19 | 49,703 | 575 | – | – | – | – | –
25 | COc1cccc(F)c1/C=C/C1=[N+]2C(=C(c3ccc(NC(=O)CCl)cc3)c3cccn3[B-]2(F)F)C(C)=C1 [BDNCA-254] | 0.09 | 559 nm | 22 | 56,018 | 581 | – | – | – | – | –
26 | COc1cc(/C=C/c2cc(C)c3n2[B-](F)(F)[N+]2=CC=CC2=C3c2ccc(NC(=O)CCl)cc2)ccc1OCCN1CCCC1 [BDNCA-458] | – | – | – | – | – | 569 nm | 39 | 25,538 | 608 | 0.06
27 | Cc1cc(/C=C/c2ccc(F)c(Oc3ccccc3)c2)n2c1C(c1ccc(NC(=O)CCl)cc1)=C1C=CC=[N+]1[B-]2(F)F [BDNCA-311] | – | – | – | – | – | 555 nm | 20 | 57,117 | 575 | 0.09
